Experimental data from the Kinase Knowledgebase extract (Sharma et al. 2016).

Target: EGFR (UniProt P00533)
Sequence (P00533 whole entry, looked up): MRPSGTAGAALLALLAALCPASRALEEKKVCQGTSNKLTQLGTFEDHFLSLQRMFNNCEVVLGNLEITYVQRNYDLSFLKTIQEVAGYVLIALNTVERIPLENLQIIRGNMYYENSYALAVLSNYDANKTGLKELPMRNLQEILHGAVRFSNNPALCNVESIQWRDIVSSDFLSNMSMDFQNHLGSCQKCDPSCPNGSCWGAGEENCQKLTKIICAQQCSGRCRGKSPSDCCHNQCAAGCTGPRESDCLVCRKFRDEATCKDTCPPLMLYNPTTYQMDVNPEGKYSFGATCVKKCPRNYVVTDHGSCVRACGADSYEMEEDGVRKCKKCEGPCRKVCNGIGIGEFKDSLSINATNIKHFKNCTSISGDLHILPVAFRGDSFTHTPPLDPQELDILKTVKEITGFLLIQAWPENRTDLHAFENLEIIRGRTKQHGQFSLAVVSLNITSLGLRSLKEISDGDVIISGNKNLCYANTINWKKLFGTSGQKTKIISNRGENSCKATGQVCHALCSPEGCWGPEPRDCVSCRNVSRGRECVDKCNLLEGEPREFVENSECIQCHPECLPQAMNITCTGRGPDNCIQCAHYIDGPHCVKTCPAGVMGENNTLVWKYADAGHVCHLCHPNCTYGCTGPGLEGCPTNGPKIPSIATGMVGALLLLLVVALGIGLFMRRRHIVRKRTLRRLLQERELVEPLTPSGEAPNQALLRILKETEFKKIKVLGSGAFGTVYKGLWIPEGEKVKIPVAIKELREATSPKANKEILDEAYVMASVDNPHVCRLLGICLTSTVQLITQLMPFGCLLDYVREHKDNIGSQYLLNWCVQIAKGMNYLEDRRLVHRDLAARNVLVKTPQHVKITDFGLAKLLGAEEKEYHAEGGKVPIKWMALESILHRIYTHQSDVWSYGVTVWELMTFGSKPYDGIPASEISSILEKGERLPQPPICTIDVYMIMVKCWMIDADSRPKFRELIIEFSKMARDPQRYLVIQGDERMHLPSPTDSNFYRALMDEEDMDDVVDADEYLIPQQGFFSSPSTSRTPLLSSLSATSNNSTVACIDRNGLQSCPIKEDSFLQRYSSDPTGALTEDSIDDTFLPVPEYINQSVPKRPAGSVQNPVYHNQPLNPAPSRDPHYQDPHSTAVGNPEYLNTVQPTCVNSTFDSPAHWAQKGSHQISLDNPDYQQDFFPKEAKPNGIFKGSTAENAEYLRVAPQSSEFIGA

| IC50 [µM] | SMILES |
| --- | --- |
| < 0.1 | Fc1cccc(COc2ccc(Nc3ncncc3C#Cc3cccc(CNCCCn4ccnc4)n3)cc2Cl)c1 |
| ≤ 10 | Fc1cccc(COc2ccc(Nc3ncncc3/C=C/c3cn[nH]c3)cc2Cl)c1 |
| ≤ 10 | CN(C)Cc1cccc(C#Cc2cncnc2Nc2ccc(OCc3cccc(F)c3)c(Cl)c2)n1 |
| ≤ 10 | C(=C\c1cncnc1Nc1ccc2[nH]c(Cc3ccccc3)nc2c1)/c1cn[nH]c1 |
| ≤ 10 | CS(=O)(=O)CCNCc1cccc(C#Cc2cncnc2Nc2ccc(OCc3cccc(F)c3)c(Cl)c2)c1 |
| < 0.1 | Fc1cccc(COc2ccc(Nc3ncncc3/C=C/c3ccsc3)cc2Cl)c1 |
| ≤ 10 | CNCc1cccc(C#Cc2cncnc2Nc2ccc(OCc3cccc(F)c3)c(Cl)c2)n1 |
| ≤ 10 | C(=C\c1cncnc1Nc1ccc2[nH]c(Cc3ccccc3)nc2c1)/c1ccccc1 |
| ≤ 10 | CN(CCO)Cc1cccc(C#Cc2cncnc2Nc2ccc(OCc3cccc(F)c3)c(Cl)c2)n1 |
| ≤ 10 | CC(=O)Nc1cccc(C#Cc2cncnc2Nc2ccc(OCc3cccc(F)c3)c(Cl)c2)n1 |
| ≤ 10 | CN(CCO)C(=O)NCc1cccc(C#Cc2cncnc2Nc2ccc(OCc3cccc(F)c3)c(Cl)c2)n1 |
| ≤ 10 | Fc1cccc(COc2ccc(Nc3ncncc3/C=C/c3cccs3)cc2Cl)c1 |
| ≤ 10 | Fc1cccc(COc2ccc(Nc3ncncc3C#Cc3ncccn3)cc2Cl)c1 |
| < 0.1 | Fc1cccc(COc2ccc(Nc3ncncc3/C=C/c3ccncc3)cc2Cl)c1 |
| ≤ 10 | O=Cc1cccc(C#Cc2cncnc2Nc2ccc(OCc3cccc(F)c3)c(Cl)c2)c1 |
| ≤ 10 | O=C(Nc1cccc(C#Cc2cncnc2Nc2ccc(OCc3cccc(F)c3)c(Cl)c2)n1)C(F)(F)Cl |
| ≤ 10 | OCc1ccc(C#Cc2cncnc2Nc2ccc(OCc3cccc(F)c3)c(Cl)c2)o1 |
| ≤ 10 | Oc1ccc(C#Cc2cncnc2Nc2ccc(OCc3cccc(F)c3)c(Cl)c2)cc1 |
| ≤ 10 | Fc1cccc(COc2ccc(Nc3ncncc3C#Cc3cn[nH]c3)cc2Cl)c1 |
| ≤ 10 | O=Cc1ccc(C#Cc2cncnc2Nc2ccc(OCc3cccc(F)c3)c(Cl)c2)o1 |
| < 0.1 | Nc1cccc(C#Cc2cncnc2Nc2ccc(OCc3cccc(F)c3)c(Cl)c2)n1 |
| ≤ 10 | C(=C\c1cncnc1Nc1ccc2[nH]c(Cc3ccccc3)nc2c1)/c1ccsc1 |
| 0.1 to 1 | C(=C\c1cncnc1Nc1ccc2c(cnn2Cc2ccccc2)c1)/c1cn[nH]c1 |
| ≤ 10 | CC(=O)Nc1cccc(C#Cc2cncnc2Nc2ccc(Cc3ccccc3)cc2)c1 |
| ≤ 10 | N#Cc1cccc(C#Cc2cncnc2Nc2ccc(OCc3cccc(F)c3)c(Cl)c2)c1 |

| IC50 [µM] | SMILES |
| --- | --- |
| ≤ 10 | Fc1cccc(C#Cc2cncnc2Nc2ccc(OCc3cccc(F)c3)c(Cl)c2)c1 |
| ≤ 10 | O=Cc1ccccc1C#Cc1cncnc1Nc1ccc(OCc2cccc(F)c2)c(Cl)c1 |
| 0.1 to 1 | Fc1cccc(COc2ccc(Nc3ncncc3C#Cc3cccc(CNCCN4CCOCC4)n3)cc2Cl)c1 |
| ≤ 10 | Nc1ccc(C#Cc2cncnc2Nc2ccc(OCc3cccc(F)c3)c(Cl)c2)cc1 |
| ≤ 10 | NCc1cccc(C#Cc2cncnc2Nc2ccc(OCc3cccc(F)c3)c(Cl)c2)n1 |
| ≤ 10 | CNC(=O)NCc1cccc(C#Cc2cncnc2Nc2ccc(OCc3cccc(F)c3)c(Cl)c2)n1 |
| ≤ 10 | Fc1cccc(COc2ccc(Nc3ncncc3C#Cc3nccs3)cc2Cl)c1 |
| ≤ 10 | Fc1cccc(COc2ccc(Nc3ncncc3C#Cc3cccc(CN4CCNCC4)n3)cc2Cl)c1 |
| ≤ 10 | Fc1cccc(COc2ccc(Nc3ncncc3/C=C/c3cccnc3)cc2Cl)c1 |
| ≤ 10 | COCCNC(=O)NCc1cccc(C#Cc2cncnc2Nc2ccc(OCc3cccc(F)c3)c(Cl)c2)n1 |
| ≤ 10 | CNC(=O)c1cccc(/C=C/c2cncnc2Nc2ccc3[nH]c(Cc4ccccc4)nc3c2)c1 |
| ≤ 10 | Oc1cccnc1/C=C/c1cncnc1Nc1ccc2c(cnn2Cc2ccccc2)c1 |
| ≤ 10 | Cc1ccc(S(=O)(=O)n2ccc3ccc(C#Cc4cncnc4Nc4ccc(OCc5cccc(F)c5)c(Cl)c4)cc32)cc1 |
| ≤ 10 | N#Cc1ccc(C#Cc2cncnc2Nc2ccc(OCc3ccc(F)cc3)c(Cl)c2)nc1N |
| ≤ 10 | CS(=O)(=O)CC(=O)Nc1cccc(C#Cc2cncnc2Nc2ccc(OCc3cccc(F)c3)c(Cl)c2)c1 |
| ≤ 10 | C(=C\c1cncnc1Nc1ccc2c(cnn2Cc2ccccc2)c1)/c1ccncc1 |
| ≤ 10 | COCCNCc1cccc(C#Cc2cncnc2Nc2ccc(OCc3cccc(F)c3)c(Cl)c2)n1 |
| < 0.1 | COc1ccc(/C=C/c2cncnc2Nc2ccc(OCc3cccc(F)c3)c(Cl)c2)cc1OC |
| ≤ 10 | CC(=S)Nc1cccc(C#Cc2cncnc2Nc2ccc(OCc3cccc(F)c3)c(Cl)c2)c1 |
| ≤ 10 | NCCC(=O)Nc1cccc(C#Cc2cncnc2Nc2ccc(OCc3cccc(F)c3)c(Cl)c2)c1 |
| ≤ 10 | CSc1nccc(C#Cc2cncnc2Nc2ccc(OCc3cccc(F)c3)c(Cl)c2)n1 |
| ≤ 10 | Nc1ncc(/C=C/c2cncnc2Nc2ccc3c(cnn3Cc3ccccc3)c2)cn1 |
| ≤ 10 | Fc1cccc(COc2ccc(Nc3ncncc3C#Cc3cccnc3)cc2Cl)c1 |
| ≤ 10 | CS(=O)(=O)CCNCc1ccc(C#Cc2cncnc2Nc2ccc(OCc3cccc(F)c3)c(Cl)c2)o1 |
| ≤ 10 | Fc1cccc(COc2ccc(Nc3ncncc3C#Cc3cncnc3)cc2Cl)c1 |

| IC50 [µM] | SMILES |
| --- | --- |
| ≤ 10 | CC(=O)NCCNCc1cccc(C#Cc2cncnc2Nc2ccc(OCc3cccc(F)c3)c(Cl)c2)n1 |
| ≤ 10 | CC(=O)Nc1cccc(C#Cc2cncnc2Nc2ccc(OCc3cccc(F)c3)c(Cl)c2)c1 |
| ≤ 10 | CC(=O)Nc1cccc(/C=C/c2cncnc2Nc2ccc3c(cnn3Cc3ccccc3)c2)c1 |
| ≤ 10 | Fc1cccc(COc2ccc(Nc3ncncc3C#Cc3cccs3)cc2Cl)c1 |
| ≤ 10 | CC(=O)Nc1cccc(C#Cc2cncnc2Nc2ccc3[nH]c(Cc4ccccc4)nc3c2)c1 |
| ≤ 10 | Nc1ncc(/C=C/c2cncnc2Nc2ccc(OCc3cccc(F)c3)c(Cl)c2)cn1 |
| ≤ 10 | OCc1nc(C#Cc2cncnc2Nc2ccc(OCc3cccc(F)c3)c(Cl)c2)cs1 |
| ≤ 10 | N#CCCNCc1ccc(C#Cc2cncnc2Nc2ccc(OCc3cccc(F)c3)c(Cl)c2)o1 |
| < 0.1 | CN(C)CCCC(=O)Nc1cccc(C#Cc2cncnc2Nc2ccc(OCc3cccc(F)c3)c(Cl)c2)n1 |
| ≤ 10 | Fc1cccc(COc2ccc(Nc3ncncc3C#Cc3cccc(CN4CCCC4)n3)cc2Cl)c1 |
| ≤ 10 | COCCOCC(=O)Nc1cccc(C#Cc2cncnc2Nc2ccc(OCc3cccc(F)c3)c(Cl)c2)c1 |
| ≤ 10 | Oc1cccnc1/C=C/c1cncnc1Nc1ccc(OCc2cccc(F)c2)c(Cl)c1 |
| ≤ 10 | C(=C\c1cncnc1Nc1ccc2c(cnn2Cc2ccccc2)c1)/c1cccnc1 |
| < 0.1 | Fc1cccc(COc2ccc(Nc3ncncc3C#Cc3cccc(CN4CCCCC4)n3)cc2Cl)c1 |
| ≤ 10 | Fc1cccc(COc2ccc(Nc3ncncc3C#Cc3ccnc(N4CCOCC4)n3)cc2Cl)c1 |
| ≤ 10 | CC(=O)Nc1cccc(C#Cc2cncnc2Nc2ccc3c(cnn3Cc3ccccc3)c2)c1 |
| ≤ 10 | CN1CCN(Cc2cccc(C#Cc3cncnc3Nc3ccc(OCc4cccc(F)c4)c(Cl)c3)n2)CC1 |
| 0.1 to 1 | COC(=O)CCC(=O)Nc1cccc(C#Cc2cncnc2Nc2ccc(OCc3cccc(F)c3)c(Cl)c2)n1 |
| ≤ 10 | CC(C)(C)OC(=O)NCc1cccc(C#Cc2cncnc2Nc2ccc(OCc3cccc(F)c3)c(Cl)c2)c1 |
| ≤ 10 | C(=C\c1cncnc1Nc1ccc(Oc2ccccc2)cc1)/c1ccccc1 |
| ≤ 10 | Fc1cccc(COc2ccc(Nc3ncncc3C#Cc3ccc4c(c3)CNCC4)cc2Cl)c1 |
| ≤ 10 | Fc1cccc(COc2ccc(Nc3ncncc3C#Cc3ccccc3)cc2Cl)c1 |
| ≤ 10 | Nc1ccc(C#Cc2cncnc2Nc2ccc(OCc3cccc(F)c3)c(Cl)c2)cn1 |
| ≤ 10 | CC(=O)Nc1cccc(C#Cc2cncnc2Nc2ccc(Oc3ccccc3)cc2)c1 |
| ≤ 10 | N#CCCNCc1cccc(C#Cc2cncnc2Nc2ccc(OCc3cccc(F)c3)c(Cl)c2)n1 |

| IC50 [µM] | SMILES |
| --- | --- |
| ≤ 10 | N#Cc1ccccc1C#Cc1cncnc1Nc1ccc(OCc2cccc(F)c2)c(Cl)c1 |
| < 0.1 | CC(=O)Nc1cccc(/C=C/c2cncnc2Nc2ccc(OCc3cccc(F)c3)c(Cl)c2)c1 |
| ≤ 10 | CSCCC(=O)Nc1cccc(C#Cc2cncnc2Nc2ccc(OCc3cccc(F)c3)c(Cl)c2)c1 |
| ≤ 10 | Nc1cccc(C#Cc2cncnc2Nc2ccc(OCc3cccc(F)c3)c(Cl)c2)c1 |
| < 0.1 | CS(=O)(=O)CCNC(=O)NCc1cccc(C#Cc2cncnc2Nc2ccc(OCc3cccc(F)c3)c(Cl)c2)n1 |
| ≤ 10 | Fc1cccc(COc2ccc(Nc3ncncc3C#Cc3ccccn3)cc2Cl)c1 |
| > 1 | COCc1cccc(C#Cc2cncnc2Nc2ccc(OCc3cccc(F)c3)c(Cl)c2)n1 |
| ≤ 10 | C(#Cc1cncnc1Nc1ccc2c(ccn2Cc2ccccc2)c1)c1ccccc1 |
| ≤ 10 | Fc1cccc(COc2ccc(Nc3ncncc3C#Cc3cccc(CNCc4ccccc4)n3)cc2Cl)c1 |
| > 1 | C(=C\c1cncnc1Nc1ccc2sc(Cc3ccccc3)nc2c1)/c1ccsc1 |
| ≤ 10 | COc1cccc(C#Cc2cncnc2Nc2ccc(OCc3cccc(F)c3)c(Cl)c2)n1 |
| ≤ 10 | Fc1cccc(COc2ccc(Nc3ncncc3C#Cc3ccsc3)cc2Cl)c1 |
| 0.1 to 1 | N=C(N)Nc1cccc(C#Cc2cncnc2Nc2ccc(OCc3cccc(F)c3)c(Cl)c2)c1 |
| ≤ 10 | N#CCCNC(=O)NCc1cccc(C#Cc2cncnc2Nc2ccc(OCc3cccc(F)c3)c(Cl)c2)n1 |
| < 0.1 | O=C(Nc1cccc(C#Cc2cncnc2Nc2ccc(OCc3cccc(F)c3)c(Cl)c2)n1)C(F)(F)F |
| < 0.1 | Fc1cccc(COc2ccc(Nc3ncncc3/C=C/c3ccccc3)cc2Cl)c1 |
| ≤ 10 | CC(=O)NCc1cccc(C#Cc2cncnc2Nc2ccc(OCc3cccc(F)c3)c(Cl)c2)c1 |
| ≤ 10 | Fc1cccc(COc2ccc(Nc3ncncc3C#Cc3cccc(CN4CCOCC4)n3)cc2Cl)c1 |
| ≤ 10 | Cn1cncc1C#Cc1cncnc1Nc1ccc(OCc2cccc(F)c2)c(Cl)c1 |
| > 1 | CS(=O)(=O)CCNc1cccc(C#Cc2cncnc2Nc2ccc(OCc3cccc(F)c3)c(Cl)c2)n1 |
| < 0.1 | O=C(NCCN1CCOCC1)NCc1cccc(C#Cc2cncnc2Nc2ccc(OCc3cccc(F)c3)c(Cl)c2)n1 |
| ≤ 10 | CC(=O)Nc1ccc(/C=C/c2cncnc2Nc2ccc(OCc3cccc(F)c3)c(Cl)c2)cn1 |
